These results are taken from publication PMC13534789, “Molecular Glue Degraders Enhance CAPRIN1‐Dependent Lysosomal Degradation of APP and Reduce Amyloid β in Alzheimer's Disease” (Advanced Science, 2026).

One experiment concerns LN229 and HCT116 cells. Also on record: method as in PMID 34644148. As to conditions: cited from earlier work.
Another experiment deals with T1, CAPRIN1 and APP (Homo sapiens, UniProt P05067+Q14444).
T1 construct: endogenous in cells; host or cells: AG27606-Ns, sAD2.3-Ns (iPSC-derived neurons) and their lysates
In words: Streptavidin pull-down with biotinylated 0152 in AG27606-N lysates. It is filed as binding.

Take `N#Cc1ccc2nc(NC(=O)Nc3cccc(Cl)c3)sc2c1` [HB007, reference compound]: in the experiment with LN229 and HCT116 cells, the Cancer cell growth entry is on record as “inhibits cancer cell growth”. Further, the “Competition of the 0152-biotin pull-down by excess free compound” value on CAPRIN1 and APP is “not by the inactive analog HB007”.
